Measured values as given in patent publication US10716806B2, “Solution of carbon monoxide for the treatment of disease, including sickle cell disease” (Children's Hospital Los Angeles, priority 2011, dated 2020).

How the values were obtained:
[1] = cited from earlier work
[2] = CO concentration achievable in aqueous composition (water) at given temperature and pressure; assay type: physicochemical
Description: There are a number of significant limitations to using the delivery of CO dissolved in liquid and used through the GI tract or IV for therapeutic or prophylactic purposes. These limitations have been overcome in the present invention. The primary barrier to date has been delivering sufficient quantities of CO. The solubility of CO in aqueous solutions is low at room temperature and normal atmospheric pressure (ATM). Thus, using approaches previously proposed in the art, which rely on dissolving CO into an aqueous composition at room temperature and at atmospheric pressure, the volume of liquid necessary to deliver a therapeutic dose of CO is logistically prohibitive. However, using the present invention, therapeutically useful levels of CO can be achieved. Table 1 provides a summary of volumes necessary to achieve a therapeutic dose providing an average increase of […] CO-Hb, which provides an average CO-Hb level in the blood of about 7% on average without rising above 15% at any given time. The values are presented for SCD patients. Table 2 provides a similar summary of volumes necessary to treat patients having normal levels of Hb and normal lung function.
First, in the present invention, in particular as it relates to embodiments wherein aqueous compositions are involved, CO is dissolved in an aqueous liquid under higher than ambient pressure. The use of pressure to dissolve the CO increases the achievable concentration of CO in solution. […] Although raising the pressure above 10 ATM might not be commercially practicable, it is technologically feasible at this time. […]

[3] = cited from earlier work; remark: listed apart in the source

In the case of `[C-]#[O+]` [CO, carbon monoxide], the “half-life of the alpha-phase of CO in the human bloodstream” value [1] is given as 4 to 6 h, the “CO Concentration Achievable in Aqueous Composition” value (“CO Concentration Achievable” for short) ([2]; 2° C., 1 ATM) is given as 40 mg/L water and the “CO Concentration in Aqueous Solution” value ([2]; 2° C., 1 ATM) is given as 40 mg/L water. The “CO Concentration Achievable” value ([2]; 2° C., 2 ATM) was 80 mg/L water, the “CO Concentration in Aqueous Solution” value ([2]; 2° C., 2 ATM) was 80 mg/L water and the “CO Concentration Achievable” value ([2]; 2° C., 3 ATM) was 120 mg/L water. For the same compound, the “CO Concentration in Aqueous Solution” value ([2]; 2° C., 3 ATM) was 120 mg/L water, the “CO Concentration Achievable” value ([2]; 2° C., 5 ATM) was 200 mg/L water and the “CO Concentration in Aqueous Solution” value ([2]; 2° C., 5 ATM) was 200 mg/L water. The “CO Concentration Achievable” value ([2]; 2° C., 10 ATM) was 400 mg/L water, the “CO Concentration in Aqueous Solution” value ([2]; 2° C., 10 ATM) was 400 mg/L water and the “CO Concentration Achievable” value ([2]; 21° C., 1 ATM) was 25 mg/L water. For the same compound, the “CO-Hb level at which toxicity and side effects are routinely seen” value ([3]; generally recognized) was “over 20%”, the “CO-Hb level showing effectiveness at reducing SCC without significant deleterious side effects or toxicity” value ([3]; generally recognized) was “up to 15 % CO-Hb” and the “Hb saturation likely resulting in CO-induced death unless treatment is provided” value ([3]; reported (Stewart 1975)) was “over 67%”. The “Hb saturation resulting in loss of consciousness, among other serious morbidities” value ([3]; reported, can result in death if maintained long-term) was “over 30%”.
